{"source": "patent US6384208B1", "about": "“Sequence directed DNA binding molecules compositions and methods” (Genelabs Technologies, Inc., priority 1991, dated 2002)", "key": {"[1]": {"tested_on": "oligonucleotides containing the screening sequence (SEQ ID NO:601) flanked by a test sequence (SEQ ID NO:605 to SEQ ID NO:613)", "type": "binding, Herpes Simplex Virus"}, "[2]": {"tested_on": "256 different 4 bp sequences flanking the UL9 recognition site", "type": "binding, Herpes Simplex Virus"}, "DNA": {"tested_on": "DNA", "settings": "cited from earlier work; for published binding constant: bulk genomic DNA (average)"}}, "note": "“Also recorded” adds a separate entry of the source. Like-named read-outs stand apart in the source and are kept apart here. Starred links: 1 amine or outer side, 2 acyl side, 3 side chain; linkers in the order of their positions; H or OH if unused. Positions of bridges follow the written chain, without caps; N, C: chain ends. Non-standard residues stand in square brackets, D forms with d. Residues, ends and D or L forms follow the SMILES beside them. Chains are numbered I, II in the order given. Actinocin(9to1) = Cc1c2oc3c(C)ccc(C(=O)[*:1])c3nc-2c(C(=O)[*:2])c(N)c1=O; NMeV = CN[C@H](C(=O)O)C(C)C; Sar = CNCC(=O)O", "data": [{"compound": "COc1cccc2c1C(=O)c1c(O)c3c(c(O)c1C2=O)C[C@@](O)(C(=O)CO)C[C@@H]3O[C@H]1C[C@H](N)[C@H](O)[C@H](C)O1", "note": "[Doxorubicin]", "values": [{"measurement": "effect on DNA:protein complexes", "setting": "[1]", "value": "most DNA:protein complexes are nearly completely disrupted, with UL9 polyT and UL9ATAT showing some DNA still complexed with protein"}, {"measurement": "effect on UL9 binding to the screening sequence", "setting": "[1]", "value": "strongly affected; also recorded: more mildly affected; also recorded: effects similar to those observed at 15 μM were also observed"}, {"measurement": "test sequences at which UL9 binding to the screening sequence is preferentially disrupted", "setting": "[1]", "value": "preferentially disrupts the binding of UL9 to the oligonucleotides UL9 polyT, UL9 GGGC, oriEco2, and oriEco3"}]}, {"compound": "Cc1c2oc3c(C)ccc(C(=O)N[C@@H]4C(=O)N[C@H](C(C)C)C(=O)N5CCC[C@H]5C(=O)N(C)CC(=O)N(C)[C@@H](C(C)C)C(=O)O[C@@H]4C)c3nc-2c(C(=O)N[C@@H]2C(=O)N[C@H](C(C)C)C(=O)N3CCC[C@H]3C(=O)N(C)CC(=O)N(C)[C@@H](C(C)C)C(=O)O[C@@H]2C)c(N)c1=O", "note": "[actinomycin D, Actinomycin D] (I: T[dV]P[Sar][NMeV] / II: T[dV]P[Sar][NMeV]; ester I:1-I:C, II:1-II:C; linker I:N-II:N via Actinocin(9to1))", "values": [{"measurement": "dinucleotide preference", "setting": "[2]", "value": "GC, particularly in the N1N2 position"}, {"measurement": "mean r % score for all oligonucleotides", "setting": "[2]", "value": 67, "unit": "%"}, {"measurement": "overall sequence preference in the screen of all 256 sequences", "setting": "[2]", "value": "preference for binding GC-rich sequences; also recorded: prefers GC-rich sequences over AT-rich sequences"}, {"measurement": "position effect of a single base in the test site", "setting": "[2]", "value": "a single base in any particular position has little impact on the binding"}, {"measurement": "sequence binding preference", "setting": "[2]", "value": "a preference for binding GC-rich oligonucleotides has been observed; also recorded: this binding preference is even more apparent"}, {"measurement": "reported preferred DNA binding sequence", "setting": "DNA; literature", "value": "dGdC"}, {"measurement": "test sequences at which UL9 binding to the screening sequence is preferentially disrupted", "setting": "[1]", "value": "preferentially disrupts the binding of UL9-COOH to the oligonucleotides UL9 CCCG (SEQ ID NO:605) and UL9 GGGC (SEQ ID NO:606); also recorded: preferentially disrupts the binding of UL9 to the oligonucleotides UL9 CCCG and UL9 GGGC"}]}, {"compound": "Cn1cc(NC(=O)c2cc(NC(=O)c3cc(NC=O)cn3C)cn2C)cc1C(=O)NCCC(=N)N", "note": "[distamycin, Distamycin A]", "values": [{"measurement": "Ave. rank (actual) of the 18 sequences of the second consensus sequence", "setting": "[2]", "value": 29}, {"measurement": "Average rank (actual) of the 16 sequences of the first consensus sequence", "setting": "[2]", "value": 17}, {"measurement": "overall sequence preference in the screen of all 256 sequences", "setting": "[2]", "value": "preference for binding AT-rich sequences"}, {"measurement": "second consensus sequence, favoured bases and order", "setting": "[2]", "value": "A/G/C and G/C/A and G/C and A>G=C and C>A=G and G=C"}, {"measurement": "published binding constant", "setting": "DNA", "value": "about 2×10^5 M^−1"}, {"measurement": "published binding constant", "setting": "DNA; listed as dista", "value": 200000, "unit": "M⁻¹"}, {"measurement": "KA (binding to DNA)", "setting": "DNA; literature", "value": 200000, "unit": "M⁻¹"}, {"measurement": "reported preferred DNA binding sequence", "setting": "DNA; literature", "value": "non-alternating AT-rich sequences"}, {"measurement": "effect on DNA:protein complexes / free probe", "setting": "[1]", "value": "most of the DNA:protein complexes are intact (top band) with free probe appearing in the UL9 polyT and UL9 polyA lanes, and some free probe appearing in the UL9 ATAT lane; also recorded: free probe can be seen in the UL9 polyT and UL9 polyA lanes; also recorded: the DNA:protein in the polyT, UL9 polyA and UL9 ATAT lanes are near completely disrupted while some DNA:protein complexes in the other lanes persist"}, {"measurement": "test sequences at which UL9 binding to the screening sequence is preferentially disrupted", "setting": "[1]", "value": "preferentially disrupts binding to the test sequences UL9 polyT, UL9 polyA and, to a lesser extent, UL9ATAT; also recorded: preferentially disrupts binding to UL9 polyT, UL9 polyA and UL9 ATAT"}]}, {"compound": "CS[C@H]1SC[C@H]2C(=O)N(C)[C@@H](C(C)C)C(=O)OC[C@@H](NC(=O)c3cnc4ccccc4n3)C(=O)N[C@@H](C)C(=O)N(C)[C@@H]1C(=O)N(C)[C@@H](C(C)C)C(=O)OC[C@@H](NC(=O)c1cnc3ccccc3n1)C(=O)N[C@@H](C)C(=O)N2C", "note": "[echinomycin]", "values": [{"measurement": "reported preferred DNA binding sequence", "setting": "DNA; literature", "value": "[(A/T)CGT]/[ACG(A/T)]"}]}, {"compound": "calicheamicin", "values": [{"measurement": "reported preferred DNA binding sequence", "setting": "DNA; literature", "value": "TCCT/AGGA"}]}]}
